Test results as given in patent US9457095B2, “Pharmaceutical compositions providing enhanced drug concentrations” (Bend Research, Inc., priority 1999, dated 2016).
In brackets after ≈: the same amount, converted by molar mass. Structures can show the parent of a compound that is named as a salt. Blank lines part the entries; values can stand above or below the compound they belong to.

What was measured:
Format in all cases: physicochemical
[1] = solubility of Drug 6 salt forms; conditions: Drug 6 salts
[2] = microcentrifuge dissolution, sertraline lactate (Drug 2) with polymer
Description: For these tests, 1.8 mg sertraline lactate was added to 0.9 mL HPLC water in each of six microcentrifuge tubes. For Control 4, 0.9 mL 2×PBS (PBS solution with 2 times the standard buffer salt concentration), adjusted to pH 8.0, was added to Tubes 1 and 2. For Example 10, 0.9 mL 2×PBS (pH 8.0) containing 3.6 mg of HPMCAS-MF was added to Tubes 3 and 4. For Example 11, 0.9 mL 2×PBS (pH 8.0) containing 3.6 mg of CAT was added to Tubes 5 and 6.
Dissolution performance was measured at 37° C. using the microcentrifuge method described in Example 1. Samples were taken after 4, 10, 20, 40, 90, and 180 minutes as described in Example 1. Samples were diluted in 35% H2O/65% ACN (vol./vol.), and analyzed by HPLC. The mobile phase was 35 vol. % 0.025 M triethylamine with 0.05M acetic acid in HPLC water in ACN. The analytical column used was a Phenomenex ODS 20, and the drug concentration was determined using diode array detection at 230 nm.

[3] = microcentrifuge dissolution, ziprasidone mesylate (Drug 3) with polymer; conditions: for [Drug 3]: PBS, 37° C.
Description: Ziprasidone mesylate (Drug 3) is the soluble salt form of the antipsychotic drug ziprasidone. For these tests, 0.5 mg drug was added to each of 8 microcentrifuge tubes. For Control 5, no concentration-enhancing polymer was added to Tubes 1 and 2. For Example 12, 1.0 mg of CAT was added to Tubes 3 and 4. For Example 13, 1.0 mg of CAP (NF grade from Eastman Fine Chemical of Kingsport, Tenn.) was added to Tubes 5 and 6. For Example 14, 1.0 mg HPMCP (NF grade from Eastman Chemical Company) was added to Tubes 7 and 8.
Dissolution performance was measured at 37° C. using the microcentrifuge method described in Example 1. For each test, 0.616 mg of Drug 3 was added to the microcentrifuge tube. At time 0, 1.8 mL PBS was added to each of the tubes. Drug concentration was measured using HPLC, with a mobile phase of 60 vol. % 0.02 M KH2PO4, pH 3.0 in ACN, and diode array detection at 254 nm.

[4] = solubility of sertraline forms; conditions: for solubility: sertraline forms, pH 3, expressed as the free base
[5] = microcentrifuge dissolution, amorphous Drug 1 with varying ratios of HPMCAS-MF; conditions: 15 mg amorphous Drug 1 in 1.5 mL PBS, 37° C.
Description: Amorphous Drug 1 (15 mg) was added to microcentrifuge tubes containing 1.5 mL of PBS solution and varying concentrations of HPMCAS-MF. Dissolution performance was measured at 37° C. using the microcentrifuge method described in Example 1. Drug concentration was measured at 1.5 hours and at 20 hours for each polymer concentration.

[6] = Cmax of Drug 1 forms in MFD solution; conditions: pH 6.5 MFD solution
[7] = solubility of Drug 4 polymorphs in water; conditions: Drug 4 mesylate polymorph

Compound: 4-[3-[4-(2-methylimidazol-1-yl) phenylthio] phenyl]-3,4,5,6-tetrahydro-2H-pyran-4-carboxamide hemifumarate [Drug 6 hydrochloride salt]
solubility ([1]; pH 4): 0.37 mgA/mL
solubility ([1]; pH 7): 0.0009 mgA/mL

Compound: 4-[3-[4-(2-methylimidazol-1-yl) phenylthio] phenyl]-3,4,5,6-tetrahydro-2H-pyran-4-carboxamide hemifumarate [Drug 6]
solubility ([1]; pH 4, listed as Drug 6 mesylate salt): 3.7 mgA/mL
solubility ([1]; pH 7, listed as Drug 6 mesylate salt): 0.0042 mgA/mL

Compound: CN[C@H]1CC[C@@H](c2ccc(Cl)c(Cl)c2)c2ccccc21 [Control 4]
[Drug 2] ([2]; 10 mins): 89 µg/mL
[Drug 2] ([2]; 20 mins): 72 µg/mL
[Drug 2] ([2]; 40 mins): 67 µg/mL
[Drug 2] ([2]; 90 mins): 63 µg/mL
[Drug 2] ([2]; 180 mins): 60 µg/mL
AUC180 ([2]; Drug 2 dissolution): 11,700 min * μg/mL
Cmax ([2]; Drug 2 dissolution): 101 µg/mL
[Drug 2] ([2]; PBS (2x PBS pH 8.0 added), 37° C., 4 mins): 101 µg/mL

Compound: CN[C@H]1CC[C@@H](c2ccc(Cl)c(Cl)c2)c2ccccc21 [Drug 2, sertraline lactate]
solubility [4]: 256000 µg/mL

Compound: CN[C@H]1CC[C@@H](c2ccc(Cl)c(Cl)c2)c2ccccc21 [Drug 5, sertraline HCl]
solubility ([4]; aqueous solution, aqueous buffer, read-out: solubility): 3000 µg/mL
solubility thermodynamic ([4]; distilled water, aqueous buffer, thermodynamic from solid, sertraline hydrochloride with or without citric acid, pH 3, read-out: equilibrium solubility): 3000 µg/mL

Next, values leading:

AUC180 ([3]; Drug 3 dissolution in PBS): 1000 µg·min/mL
Cmax ([3]; Drug 3 dissolution in PBS): 11 µg/mL
[Drug 3] ([3]; 10 mins): 3 µg/mL
[Drug 3] ([3]; 20 mins): 11 µg/mL
[Drug 3] ([3]; 40 mins): 6 µg/mL
[Drug 3] ([3]; 90 mins): 7 µg/mL
[Drug 3] ([3]; 180 mins): 1 µg/mL
Compound: CS(=O)(=O)O.O=C1Cc2cc(CCN3CCN(c4nsc5ccccc45)CC3)c(Cl)cc2N1 [Control 5]

[Drug] 1.5 hr. [5]: 224 µg/mL
Cmax ([6]; listed as amorphous form): 270 µg/mL
Compound: O=C(N[C@@H](Cc1ccccc1)[C@@H](O)C(=O)N1C[C@@H](O)[C@@H](O)C1)c1cc2cc(Cl)ccc2[nH]1 [amorphous Drug 1, 5-chloro-1H-indole-2-carboxylic acid [(1 S)-benzyl-3-((3R, 4S)-dihydroxypyrroldin-1-yl-)-(2R)-hydroxy-3-oxypropyl] amide]

Cmax ([6]; listed as crystalline form): 160 µg/mL
Compound: O=C(N[C@@H](Cc1ccccc1)[C@@H](O)C(=O)N1C[C@@H](O)[C@@H](O)C1)c1cc2cc(Cl)ccc2[nH]1 [crystalline Drug 1, 5-chloro-1H-indole-2-carboxylic acid [(1 S)-benzyl-3-((3R, 4S)-dihydroxypyrroldin-1-yl-)-(2R)-hydroxy-3-oxypropyl] amide]

solubility ([7]; read-out: solubility in water): 102 µg/mL (≈ 259 µM)
Compound: C#Cc1cccc(Nc2ncnc3cc(OCCOC)c(OCCOC)cc23)c1 [“A” form, [6,7-Bis(2-methoxy-ethoxy)-quinazolin-4-yl]-(3-ethynyl-phenyl)amine]

solubility ([7]; read-out: solubility): 28 µg/mL (≈ 71.2 µM)
Compound: C#Cc1cccc(Nc2ncnc3cc(OCCOC)c(OCCOC)cc23)c1 [“C” form, [6,7-Bis(2-methoxy-ethoxy)-quinazolin-4-yl]-(3-ethynyl-phenyl)amine]
